According to the supplement of paper PMC4862054:

Tests used:
Conditions in all cases: incubation time: 72 h
[1] = system: CAL-85-1; test: normalised response (% of control), CellTox Green; higher = less cell death (100 = DMSO, 0 = benzethonium chloride kill control)
Method in brief: (§1)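 Plates were normalised with 0.1 % DMSO as 100 and a positive kill control as 0. Breast cancer cell lines in 20 µl suspension had been seeded into 384-well plates with compound at 5 concentrations in 10-fold steps over a compound-specific 10,000-fold range, incubated 72 h, and read for CellTox Green fluorescence (485/520 nm) followed by CellTiter-Glo luminescence. Each value is the normalised signal at a single concentration.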

[2] = system: MDA-MB-436; test: as above
Method in brief: as §1

[3] = system: HCC1599; test: as above
Method in brief: as §1

[4] = system: CAL-148; test: as above
Method in brief: as §1

[5] = system: MDA-MB-468; test: as above
Method in brief: as §1

[6] = system: HCC1143; test: as above
Method in brief: as §1

[7] = system: CAL-120; test: as above
Method in brief: as §1

[8] = system: BT-474; test: as above
Method in brief: as §1

[9] = system: MFM-223; test: as above
Method in brief: as §1

[10] = system: CAL-51; test: as above
Method in brief: as §1

[11] = system: HDQ-P1; test: as above
Method in brief: as §1

[12] = system: Hs578T; test: as above
Method in brief: as §1

[13] = system: BT-549; test: as above
Method in brief: as §1

[14] = system: MDA-MB-231; test: as above
Method in brief: as §1

[15] = system: DU-4475; test: as above
Method in brief: as §1

[16] = system: MCF-10A; test: as above
Method in brief: as §1

[17] = system: MDA-MB-453; test: as above
Method in brief: as §1

[18] = system: CAL-85-1; test: normalised response (% of control), CellTiter-Glo; higher = more viable cells (100 = DMSO, 0 = benzethonium chloride kill control)
Method in brief: as §1

[19] = system: MDA-MB-436; test: as above
Method in brief: as §1

[20] = system: HCC1599; test: as above
Method in brief: as §1

[21] = system: CAL-148; test: as above
Method in brief: as §1

[22] = system: MDA-MB-468; test: as above
Method in brief: as §1

[23] = system: HCC1937; test: as above
Method in brief: as §1

[24] = system: HCC1143; test: as above
Method in brief: as §1

[25] = system: CAL-120; test: as above
Method in brief: as §1

[26] = system: BT-474; test: as above
Method in brief: as §1

[27] = system: MFM-223; test: as above
Method in brief: as §1

[28] = system: CAL-51; test: as above
Method in brief: as §1

[29] = system: HDQ-P1; test: as above
Method in brief: as §1

[30] = system: SK-BR-3; test: as above
Method in brief: as §1

[31] = system: Hs578T; test: as above
Method in brief: as §1

[32] = system: BT-549; test: as above
Method in brief: as §1

[33] = system: MDA-MB-231; test: as above
Method in brief: as §1

[34] = system: DU-4475; test: as above
Method in brief: as §1

[35] = system: MCF-10A; test: as above
Method in brief: as §1

[36] = system: MDA-MB-453; test: as above
Method in brief: as §1

[37] = system: HCC1937; test: normalised response (% of control), CellTox Green; higher = less cell death (100 = DMSO, 0 = benzethonium chloride kill control)
Method in brief: as §1

Row | Structure (SMILES) | normalised response [1] | normalised response [2] | normalised response [3] | normalised response [4] | normalised response [5] | normalised response [6] | normalised response [7] | normalised response [8] | normalised response [9] | normalised response [10] | normalised response [11] | normalised response [12] | normalised response [13] | normalised response [14] | normalised response [15] | normalised response [16] | normalised response [17] | normalised response [18] | normalised response [19] | normalised response [20] | normalised response [21] | normalised response [22] | normalised response [23] | normalised response [24] | normalised response [25] | normalised response [26] | normalised response [27] | normalised response [28] | normalised response [29] | normalised response [30] | normalised response [31] | normalised response [32] | normalised response [33] | normalised response [34] | normalised response [35] | normalised response [36] | normalised response [37]
1 | C=CC(=O)Nc1cc2c(Nc3ccc(F)c(Cl)c3)ncnc2cc1OCCCN1CCOCC1 [Canertinib] (1000 nM) | 73.3% | 88.9% | 114% | 100% | 140% | 102% | 97.7% | 83.2% | 106% | 93.2% | 97.2% | 109% | 135% | 104% | 104% | 80.4% | 102% | 49.2% | 90.5% | 81.2% | 75.3% | 62% | 88.1% | 91.5% | 94.2% | 76.8% | 95% | 62.2% | 67.4% | 27.2% | 104% | 80.1% | 78% | 101% | 32.2% | 73.6% | 
2 | Nc1ccccc1NC(=O)c1ccc(CNC(=O)OCc2cccnc2)cc1 [Entinostat] (1000 nM) | 107% | 86.4% | 90.1% | 98.3% | 65.9% |  | 102% | 99.8% | 90.1% | 70.2% | 109% | 75% | 114% | 108% | 99.9% | 90.1% | 102% | 105% | 90.5% | 83.6% | 93.7% | 91.4% | 87.8% | 98.1% | 97% | 92.4% | 98.2% | 45.2% | 93.5% | 88.8% | 86.8% | 62.1% | 93.2% | 102% | 142% | 89.8% | 116%
3 | Nc1nc(F)nc2c1ncn2[C@@H]1O[C@H](CO)[C@@H](O)[C@@H]1O [Fludarabine] (1000 nM) | 109% |  | 105% | 99.5% | 124% | 117% | 101% | 102% | 101% | 122% | 111% | 50.2% | 107% | 114% | 105% | 79.7% | 101% | 98.5% | 102% | 108% | 97.2% | 102% | 99.3% | 106% | 97.8% | 110% | 107% | 131% | 102% | 107% | 102% | 98.2% | 108% | 102% | 106% | 101% | 88.6%
4 | C=CC(=O)N1CCC[C@@H](n2nc(-c3ccc(Oc4ccccc4)cc3)c3c(N)ncnc32)C1 [Ibrutinib] (100 nM) | 84.1% | 92.1% | 99.2% | 99.6% | 122% | 92.1% | 103% | 83.1% |  | 93.6% | 102% | 56.5% | 117% | 111% | 103% | 101% | 104% | 90.4% | 102% | 118% | 95.4% | 93.1% | 97.6% | 100% | 96.2% | 97.5% | 107% | 73.1% | 82.5% | 27.5% | 106% | 111% | 105% | 105% | 91% | 72.5% | 
5 | CCN(CC)CCCC(C)Nc1c2ccc(Cl)cc2nc2ccc(OC)cc12 (centres undefined) [Mepacrine] (5000 nM) | 106% | 99.8% | 98% | 71.8% | 89.3% |  | 101% | 97.2% | 97.6% | 103% | 111% | 84.3% | 57.4% | 81.8% | 102% | 99.3% | 107% | 101% | 103% | 101% | 88.7% | 94.4% | 101% | 98% | 110% | 104% | 92.5% | 113% | 112% | 102% | 104% | 93% | 98.1% | 97.3% | 108% | 102% | 105%
